Source: ChEMBL document CHEMBL1154035, “Synthesis, characterization, and anti-melanoma activity of tetra-O-substituted analogs of nordihydroguaiaretic acid” (Bioorg Med Chem Lett, 2009)

Tested on: Mus musculus
Assay: Toxicity in ip dosed mouse
Format: organism-based
Conditions: in vivo

CC(Cc1ccc(O)c(O)c1)C(C)Cc1ccc(O)c(O)c1 (configuration not stated) [NORDIHYDROGUAIARETIC ACID]
LD50: 75 mg/kg

COc1ccc(C[C@@H](C)[C@@H](C)Cc2ccc(OC)c(OC)c2)cc1OC [TERAMEPROCOL]
LD50: 1000 mg/kg
